# Where two headings read alike, the source gives them in different places.
# Tests used:
# Assay type in all cases: biochemical
# Recombinant Human MMP-13 = biological target: T1, Recombinant Human MMP-13 (Homo sapiens, UniProt P45452); assay: MMP-13 inhibitory activity (MMP-13 specific fluorescent substrate with quencher)
# T1 construct: purchased R&D systems 511-MM
# Method: Inhibitory activity of tested compounds on MMP-13 was measured using MMP-13 specific fluorescent substrate with quencher.
# (§1) The enzyme and substrate were diluted with Tris-HCl buffer, and test compounds were diluted with dimethyl sulfoxide (DMSO).
# Test compounds and the enzyme (Recombinant Human MMP-13: R&D systems, 511-MM) were added into 96-well plate. The reaction was initiated by adding synthetic substrate (7-MCA-Pro-CHA-Gly-NVal-His-Ala-DPA: enzyme systems products, Met-06) into the plate. After incubation at 25° C. for 1 h, the reaction was terminated by addition of reaction terminating solution containing acetic acid. Fluorescence intensity of each well was measured (Ex: 325 nm, […] 405 nm) and the MMP-13 inhibitory activity of the compound in each well (%) was calculated based on the values of enzyme-free well and inhibitor-free well. The inhibitory activity of the compound was represented as IC50 (μM).
# aggrecanase-1 = biological target: T2, aggrecanase-1 (Homo sapiens, UniProt O75173); assay: Aggrecanase-1 inhibitory action (Particle Assay, GAG release from aggrecan-containing polyacrylamide particles)
# T2 sequence (O75173 213-837): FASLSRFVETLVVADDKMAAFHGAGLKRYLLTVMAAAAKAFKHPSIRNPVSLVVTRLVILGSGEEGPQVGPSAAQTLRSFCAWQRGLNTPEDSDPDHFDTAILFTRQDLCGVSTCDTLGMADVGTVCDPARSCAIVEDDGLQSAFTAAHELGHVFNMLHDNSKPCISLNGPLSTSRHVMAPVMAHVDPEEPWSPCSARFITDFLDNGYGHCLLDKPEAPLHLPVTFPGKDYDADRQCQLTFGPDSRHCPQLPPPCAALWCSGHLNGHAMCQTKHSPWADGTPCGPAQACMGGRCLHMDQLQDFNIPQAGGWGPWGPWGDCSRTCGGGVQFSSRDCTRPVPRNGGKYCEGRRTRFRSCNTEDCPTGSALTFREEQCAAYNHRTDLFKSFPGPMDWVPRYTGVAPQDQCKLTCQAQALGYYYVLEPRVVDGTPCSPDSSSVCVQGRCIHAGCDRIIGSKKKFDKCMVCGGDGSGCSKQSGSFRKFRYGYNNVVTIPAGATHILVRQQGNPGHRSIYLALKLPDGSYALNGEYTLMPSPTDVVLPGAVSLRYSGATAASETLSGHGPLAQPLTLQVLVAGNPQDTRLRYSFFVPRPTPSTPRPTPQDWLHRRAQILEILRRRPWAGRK
# Method: Particle Assay was used for determination of aggrecanase activity.
# as §1
# Test compounds and the enzyme were added into 96-well plate, and polyacrylamide particles containing aggrecan were added as a substrate and the mixture was incubated at 37° C. for 15 hr.
# After incubation, the supernatant was transferred to another plate, and mixed with 1,9-dimethylmethylene blue. The absorbence at 595 nm was measured to quantify the amount of glycosaminoglycan (GAG) released in the reaction supernatant. Whale chondroitin sulfate was used as the standard of GAG. The inhibitory activity of the compound in each well (%) was calculated based on the values of enzyme-free well and inhibitor-free well. The inhibitory activity of the compound was represented as […] (μM).
# MMP-1 = biological target: T3, MMP-1 (Homo sapiens, UniProt P03956); assay: MMP-1 inhibitory action (Type I collagen Activity Measurement kit, FITC-labeled collagen type I)
# T3 sequence (P03956 100-469): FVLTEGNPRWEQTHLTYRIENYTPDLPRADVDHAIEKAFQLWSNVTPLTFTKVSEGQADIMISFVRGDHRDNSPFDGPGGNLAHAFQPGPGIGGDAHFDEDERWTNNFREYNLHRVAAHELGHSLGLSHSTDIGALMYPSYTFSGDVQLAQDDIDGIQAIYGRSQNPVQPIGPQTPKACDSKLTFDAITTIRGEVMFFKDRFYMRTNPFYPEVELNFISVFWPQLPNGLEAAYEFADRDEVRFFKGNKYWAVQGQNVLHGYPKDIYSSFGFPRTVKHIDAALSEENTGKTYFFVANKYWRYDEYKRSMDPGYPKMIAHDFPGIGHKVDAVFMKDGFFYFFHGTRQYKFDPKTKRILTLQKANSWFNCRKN
# Method: For MMP-1 Assay, Type I collagen Activity Measurement kit (YAGAI YU-72013) modified to a 96-well plate format was used.
# The principle of the kit is based on the property of collagen that becomes soluble in ethanol after being cleaved by MMP-1.
# as §1
# The enzyme and test compounds were added into 96-well plate, and fluorescein isothiocianate (FITC)-labeled collagen type I was added as a substrate and the mixture was incubated at 37° C. for 3 hr.
# The reaction was terminated by addition of Tris-HCl buffer containing ethanol. After centrifugation, the supernatant containing denatured substrate was transferred to another 96-well plate. The collagenase activity of MMP-1 was determined by measuring FITC fluorescence intensity (excitation wavelength 485 nm, emission wavelength 530 nm) of each well. The inhibitory activity of the compound in each well (%) was calculated based on the values of enzyme-free well and inhibitor-free well. The inhibitory activity of the compound was represented as IC50 (μM).
# [1] = Recombinant Human MMP-13, fluorescent substrate, 25° C. for 1 h, read-out: IC50 MMP13 (Experimental Example 3)
# [2] = aggrecanase-1 inhibitory action, read-out: IC50 AG1 (Experimental Example 1)
# [3] = MMP-1 inhibitory action, FITC-labeled collagen type I, 37° C. for 3 hr, read-out: IC50 MMP1 (Experimental Example 2)
# [4] = Experimental Example 1, read-out: IC50 AG1
# [5] = Experimental Example 2, read-out: IC50 MMP1
# [6] = Experimental Example 3, read-out: IC50 MMP13
SMILES,IC50 (Recombinant Human MMP-13; [1]),IC50 (aggrecanase-1; [2]),IC50 (MMP-1; [3]),IC50 (aggrecanase-1; [4]),IC50 (MMP-1; [5]),IC50 (Recombinant Human MMP-13; [6])
"O=C(NO)C1(NS(=O)(=O)c2ccc(OCc3ccc(Cl)cc3Cl)cc2)CC1c1ccccc1 (stereo not drawn) [Example 1-2, 1-[4-(2,4-Dichlorobenzyloxy)benzenesulfonylamino]-2-phenylcyclopropanecarboxylic acid hydroxyamide]",< 100 nM,< 100 nM,≥ 1000 nM,,,
O=C(O)C1(NS(=O)(=O)c2ccc(-c3ccc(Cl)cc3)cc2)CC1c1cccc(NCc2cccnc2)c1 (stereo not drawn) [Example 1-3],< 100 nM,< 100 nM,≥ 1000 nM,,,
O=C(O)C1(NS(=O)(=O)c2ccc(-c3ccc(Cl)cc3)cc2)CC1c1cccc(Oc2ccccc2)c1 (stereo not drawn) [Example 1-10],< 1000 nM,< 1000 nM,≥ 1000 nM,,,
O=C(O)C1(NS(=O)(=O)c2ccc(-c3ccc(Cl)cc3)cc2)CC1c1cccc(Oc2ccc(Cl)cc2)c1 (stereo not drawn) [Example 1-11],< 1000 nM,< 1000 nM,≥ 1000 nM,,,
COc1cccc(C2CC2(NS(=O)(=O)c2ccc(-c3ccc(Cl)cc3)cc2)C(=O)O)c1 (stereo not drawn) [Example 1-12],< 100 nM,< 1000 nM,≥ 1000 nM,,,
O=C(O)C1(NS(=O)(=O)c2ccc(-c3ccc(Cl)cc3)cc2)CC1c1ccc(Oc2ccccc2)cc1 (stereo not drawn) [Example 1-16],< 100 nM,< 1000 nM,≥ 1000 nM,,,
Nc1cccc(C2CC2(NS(=O)(=O)c2ccc(-c3ccc(Cl)cc3)cc2)C(=O)O)c1 (stereo not drawn) [Example 1-18],< 100 nM,< 1000 nM,≥ 1000 nM,,,
O=C(O)C1(NS(=O)(=O)c2ccc(-c3ccc(Cl)cc3)cc2)CC1c1cccc(-c2ccccc2)c1 (stereo not drawn) [Example 1-26],< 1000 nM,< 1000 nM,≥ 10000 nM,,,
CS(=O)(=O)Nc1cccc(C2CC2(NS(=O)(=O)c2ccc(-c3ccc(Cl)cc3)cc2)C(=O)O)c1 (stereo not drawn) [Example 1-38],< 100 nM,< 100 nM,≥ 10000 nM,,,
CC(=O)Nc1cccc(C2CC2(NS(=O)(=O)c2ccc(-c3ccc(Cl)cc3)cc2)C(=O)O)c1 (stereo not drawn) [Example 1-40],< 100 nM,< 1000 nM,≥ 1000 nM,,,

# Further lines, results first:
IC50 (Recombinant Human MMP-13; [1]),IC50 (aggrecanase-1; [2]),IC50 (MMP-1; [3]),IC50 (aggrecanase-1; [4]),IC50 (MMP-1; [5]),IC50 (Recombinant Human MMP-13; [6]),SMILES
< 100 nM,< 100 nM,< 1000 nM,,,,"O=C(O)[C@]1(NS(=O)(=O)c2ccc(-c3cc(C(F)(F)F)on3)s2)[C@H](CO)[C@@H]1c1ccccc1 (relative stereo) [Example 2-10, (1R*,2R*,3R*)-2-hydroxymethyl-3-phenyl-1-[5-(5-trifluoromethyl-isoxazol-3-yl)-thiophene-2-sulfonylamino]-cyclopropanecarboxylic acid]"
< 100 nM,< 100 nM,≥ 10000 nM,,,,"O=C(NO)[C@]1(NS(=O)(=O)c2ccc(OCc3ccc(Cl)cc3Cl)cc2)[C@@H]2c3ccccc3C[C@@H]21 (relative stereo) [Example 2-13, (1R*,1aS*,6aS*)-1-[4-(2,4-dichloro-benzyloxy)-benzenesulfonylamino]-1,1a,6,6a-tetrahydro-cyclopropa[a]inden-1-carboxylic acid hydroxyamide]"
≥ 10000 nM,≥ 1000 nM,,,,,O=C(O)C1(NS(=O)(=O)N2CCN(c3cccc(C(F)(F)F)c3)CC2)CC1c1ccccc1 (stereo not drawn) [Example 2-28]
< 100 nM,≥ 1000 nM,,,,,O=C(O)C1(NS(=O)(=O)N2CCN(c3ccc(C(F)(F)F)cc3)CC2)CC1c1ccccc1 (stereo not drawn) [Example 2-29]
≥ 1000 nM,≥ 1000 nM,,,,,O=C(O)C1(NS(=O)(=O)N2CCN(c3ccc(Cl)c(C(F)(F)F)c3)CC2)CC1c1ccccc1 (stereo not drawn) [Example 2-30]
≥ 1000 nM,≥ 1000 nM,,,,,O=C(O)C1(NS(=O)(=O)N2CCN(c3cccc(Cl)c3)CC2)CC1c1ccccc1 (stereo not drawn) [Example 2-31]
< 1000 nM,≥ 1000 nM,,,,,COc1ccc(-c2ccc(S(=O)(=O)N[C@@]3(C(=O)O)C[C@@H]3c3ccccc3)s2)nn1 [Example 2-33]
< 1000 nM,≥ 1000 nM,,,,,N#Cc1ccc(-c2ccc(S(=O)(=O)N[C@@]3(C(=O)O)C[C@@H]3c3ccccc3)s2)s1 [Example 2-34]
< 1000 nM,≥ 1000 nM,,,,,O=C(O)C1(NS(=O)(=O)c2ccc(-c3ccc(Cl)cc3)s2)CC1Cc1ccccc1 (stereo not drawn) [Example 2-38]
< 1000 nM,≥ 1000 nM,,,,,O=C(O)[C@]1(NS(=O)(=O)c2ccc(-c3nsc(CF)n3)s2)C[C@@H]1c1ccccc1 [Example 2-115]
< 100 nM,≥ 1000 nM,,,,,O=C(O)[C@]1(NS(=O)(=O)c2ccc(-c3cc4ccccn4c3)s2)C[C@@H]1c1ccccc1 [Example 2-135]
,,,≥ 1000 nM,≥ 10000 nM,,CC(=O)Nc1ccc(-c2ccc(S(=O)(=O)N[C@@]3(C(=O)O)C[C@]3(C)c3ccccc3)s2)cc1 [Example 2-402]
,,,≥ 1000 nM,≥ 10000 nM,,O=C1NCc2ccccc2C2CC12NS(=O)(=O)c1ccc(-c2ccc(Cl)cc2)s1 (stereo not drawn) [Example 2-415]
,,,< 1000 nM,≥ 1000 nM,,Cc1cnc(-c2ccc(S(=O)(=O)N[C@@]3(C(=O)O)C(C)[C@@H]3c3ccccc3)s2)o1 (stereo partly drawn) [Example 2-417]
,,,≥ 1000 nM,≥ 1000 nM,,Cc1cnc(-c2ccc(S(=O)(=O)N[C@@]3(C(=O)O)C[C@]3(C)c3ccccc3)s2)o1 [Example 2-418]
,,,≥ 1000 nM,,≥ 1000 nM,C[C@]1(c2ccccc2)C[C@@]1(NS(=O)(=O)c1ccc(N2CCC(F)(F)CC2)s1)C(=O)O [Example 2-455]
,,,≥ 1000 nM,,≥ 1000 nM,CC1[C@H](c2ccccc2)[C@]1(NS(=O)(=O)c1ccc(-c2cnc3ccccc3n2)s1)C(=O)O (stereo partly drawn) [Example 2-456]
,,,< 1000 nM,≥ 1000 nM,,CC1[C@H](c2ccccc2)[C@]1(NS(=O)(=O)c1ccc(-c2ccc3[nH]c(=O)sc3c2)s1)C(=O)O (stereo partly drawn) [Example 2-468]
,,,≥ 1000 nM,≥ 10000 nM,,Cc1nc2cc(-c3ccc(S(=O)(=O)N[C@@]4(C(=O)O)C(C)[C@@H]4c4ccccc4)s3)ccc2s1 (stereo partly drawn) [Example 2-469]
,,,≥ 1000 nM,,≥ 1000 nM,C[C@]1(c2ccccc2)C[C@@]1(NS(=O)(=O)c1ccc(-c2ccc(N)cc2)s1)C(=O)O [Example 2-583]
,,,≥ 1000 nM,,≥ 1000 nM,C[C@]1(c2ccccc2)C[C@@]1(NS(=O)(=O)c1csc2ccc(-c3ccccc3)cc12)C(=O)O [Example 2-585]
,,,≥ 1000 nM,,≥ 10000 nM,Cn1nncc1-c1ccc(S(=O)(=O)N[C@@]2(C(=O)O)C[C@]2(C)c2ccccc2)s1 [Example 2-586]
,,,< 1000 nM,≥ 1000 nM,,CC1[C@H](c2ccccc2)[C@]1(NS(=O)(=O)c1ccc(-c2nc3cc(Cl)ccc3[nH]2)s1)C(=O)O (stereo partly drawn) [Example 2-604]

# — patent US20080261994A1, “CYCLOPROPANE COMPOUNDS AND PHARMACEUTICAL USE THEREOF” (Japan Tobacco Inc., priority 2003, published 2008)
